Entries after “also recorded” stand apart in the source; their conditions may differ. No end group written: not given here.
Test system: anti-(390-404) antibody
Assay: Solid-phase ELISA: binding of anti-(390-404) antibody to immobilized peptides and PC
Parameters: species or system rabbit
Protocol: To determine the immunospecificity of the rabbit antisera obtained in Example 2b, ELISA assays were performed. Briefly, 50 μl of either 50 μM peptide-(390-404) prepared in Example 1 or 10 μg/ml of PC or APC prepared in Example 2c in a buffer consisting of 0.05M sodium carbonate (Na2 CO3) and 0.02% NaN3 at pH 9.0 were admixed into the wells of microtiter plates. The plates were maintained at 37° C. for one hour to permit the antigens to become operatively affixed to the well walls. After washing the antigen-coated wells with TBS, the wells were blocked with 250 μl/well of 10% bovine serum albumin (BSA) (Sigma) in TBS for one hour at 22° C. The blocking solution was then removed and the wells were subsequently washed five times with 250 μl/well of maintenance buffer (0.05M Tris-HCl, 0.1M NaCl, 0.02% NaN3, 1 mg/ml BSA, 5 mM CaCl2, 0.01% Tween 20 at pH 7.4). Fifty μl of rabbit non-immune or specific antiserum serially diluted in maintenance buffer was then admixed to the washed wells and maintained for one hour at 37° C. to allow formation of a solid liquid phase immunoreaction products. The wells were then washed three times with maintenance buffer followed by admixture of 50 μl of 2.0 μg/ml of secondary antibody (polyclonal biotinylated goat-anti-rabbit-IgG) (Pierce Biochemicals) diluted in maintenance buffer to each well for the detection of immunoreactant products. The plates were maintained for 1 hour at 37° C. after which time the secondary antibody solution was removed. After washing the wells as described above, 50 μl of 2.0 μg/ml streptavidin-alkaline-phosphatase (Pierce Biochemicals) in maintenance buffer was admixed into each well and maintained for 30 minutes at 37° C. Detection of specific immunoreaction products was obtained by admixture of 150 μl/well of 5 mg/ml p-nitrophenylphosphate (PNPP) (Pierce Biochemicals) in 0.1M diethanolamine and 0.02% NaN3 at pH 9.6 followed by measurement of the change in absorbance at 405 nm over time using the EL312 Microplate Bio-Kinetics Reader and the KinetiCalc Software Program (Biotek Instruments, Inc., Vt.). Non-specific binding was considered as the measured absorbance in 10% BSA blocked wells which served as negative controls without the preceding coating of a specific protein or peptide. Under the described conditions, non-specific binding never exceeded more than 5% of the specific binding.
The specificity of immunoaffinity purified anti-(390-404) antibody towards peptide-(390-404) and PC was evaluated by measuring the binding in solid-phase ELISA of the antibody to immobilized peptides including -(384-398), -(390-404), -(396-410), -(404-390), and -K395A-(390-404) listed in Table 1 with their corresponding SEQ ID NO, and to PC. […]

“SGLLHNYGVYTKVSR-NH2 [peptide-(384-398), -SGLLHNYGVYTKVSR]” was tested, and the “binding of anti-(390-404) antibody to immobilized peptide or PC” value (solid-phase ELISA) was “did not bind significantly; also recorded: did not significantly bind” and the “Anti-(390-404) (Absorbance/20 min.)” value (wells coated with 50 μM peptide or 10 μg/ml PC, 2 μg/ml anti-(390-404) antibody, mean of duplicates) was 3 Absorbance/20 min.

Source: patent US5279956A, “Activated protein C polypeptides and anti-peptide antibodies, diagnostic methods and systems for inhibiting activated protein C” (The Scripps Research Institute, priority 1991, dated 1994)
